# Laboratory results from ChEMBL document CHEMBL1153009, “Synthesis and evaluation of structurally constrained imidazolidin derivatives as potent dipeptidyl peptidase IV inhibitors” (Eur J Med Chem, 2009).
# What was measured:
# [1] = molecular target: Dipeptidyl peptidase 2 (Homo sapiens, UniProt Q9UHL4); experiment: Inhibition of human recombinant DPP7 expressed in baculovirus-infected Sf9 cells by fluorescence plate reader method
# [2] = molecular target: Dipeptidyl peptidase 9 (Homo sapiens, UniProt Q86TI2)
# Chain of Dipeptidyl peptidase 9 (Q86TI2 whole entry): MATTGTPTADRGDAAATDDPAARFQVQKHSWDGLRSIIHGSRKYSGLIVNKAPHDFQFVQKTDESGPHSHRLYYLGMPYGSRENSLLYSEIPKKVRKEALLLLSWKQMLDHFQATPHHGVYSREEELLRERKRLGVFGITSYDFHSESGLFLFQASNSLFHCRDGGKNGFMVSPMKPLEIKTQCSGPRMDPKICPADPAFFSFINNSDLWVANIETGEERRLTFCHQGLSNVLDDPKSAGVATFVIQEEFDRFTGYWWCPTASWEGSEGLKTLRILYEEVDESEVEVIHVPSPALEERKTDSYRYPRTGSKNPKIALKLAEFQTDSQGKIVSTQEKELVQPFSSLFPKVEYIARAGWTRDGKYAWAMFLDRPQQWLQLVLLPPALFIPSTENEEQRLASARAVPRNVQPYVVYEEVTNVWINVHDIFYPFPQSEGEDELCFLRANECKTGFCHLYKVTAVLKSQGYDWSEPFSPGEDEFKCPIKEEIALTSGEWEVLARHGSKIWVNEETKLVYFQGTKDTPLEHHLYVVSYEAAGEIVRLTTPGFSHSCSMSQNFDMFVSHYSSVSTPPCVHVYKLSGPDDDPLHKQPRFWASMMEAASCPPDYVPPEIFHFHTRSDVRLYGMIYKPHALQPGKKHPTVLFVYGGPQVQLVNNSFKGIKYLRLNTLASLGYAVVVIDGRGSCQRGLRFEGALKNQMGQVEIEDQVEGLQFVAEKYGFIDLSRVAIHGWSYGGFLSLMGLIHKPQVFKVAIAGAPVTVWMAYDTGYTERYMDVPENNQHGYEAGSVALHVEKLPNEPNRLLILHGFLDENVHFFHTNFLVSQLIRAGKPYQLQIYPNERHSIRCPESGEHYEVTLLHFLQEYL
smiles,measurement,setting,value
"COc1ccc(N2CCN(CCNCC(=O)N3CCCC3C#N)C2=O)cc1OC (single isomer, unassigned)",IC50,[1],> 100 µM
same,IC50,[2],> 100 µM
